Experimental data published in patent US10365269B2, “System and methods for detecting ribosome inhibition” (priority 2015, dated 2019).
“Also recorded” adds a separate entry of the source.

Tests used:
Type in all cases: cell-based
O-ribosome [1] = experiment: O-ribosome inhibition fluorescence assay in E. coli SH431 (pSH6-KF, pRRSH2-U1406A); conditions: for detection of O-ribosome inhibition (fluorescence signal): E. coli SH431, U1406A 16S rRNA, aminoglycoside 0-500 μM; for relative potency as ribosome inhibitor (rank among four compounds): printed order: gentamicins, G418 and hygromycin B, kanamycin A
Description: (§1) All cell density and fluorescence measurements were taken in triplicate. 96-well culture plates (1 mL LB per well) with appropriate concentrations of necessary antibiotics and aminoglycoside were inoculated 1:100 from a saturated overnight liquid culture and allowed to grow for 48 hours at 37° C., 200 rpm shaking. For cell density assays, 40 μL of sample was taken from each well, diluted 5-fold, and OD600 was measured by microplate reader. The OD600 of the original culture was calculated by multiplying the reading by the dilution factor (Melançon et al., 2009, Bioorg. Med. Chem. Lett. 19:3845-3847). For cell pellet fluorescence imaging, cells were pelleted by centrifugation (4,000×g, 15 minutes, 4° C.) and the supernatant was decanted completely. The underside of the plate was illuminated at 365 nm using an ultraviolet handheld lamp and photgraphed with an 8 megapixel digital camera. For fluorescence quantification, cell pellets were resuspended in 1 mL of ¼×Ringer's solution (30.75 mM NaCl, 1.2 mM, KCl, 1.5 mM CaCl2, pH 7.3-7.4), 200 μL of cells from each well were transferred to black 96-well plates, and GFP fluorescence was measured (excitation=395 nm, bandwidth=9 nm; emission=509 nm, bandwidth=15 nm). Fluorescence intensities were calculated as fluorescence/OD600 of the sample minus fluorescence/OD600 of a sample of a non-GFP-expressing E. coli strain parental to the strain being analyzed in order to correct for both cell density and E. coli auto-fluorescence.
(§2) To extend the approach to a system with a different aminoglycoside resistance mutation, prrnC-sacB was replaced with pRRSH2-U1406A (see Section 2.2.2 for vector construction) in E. coli SQ380 (E. coli SH424), which was then transformed with pSH6-KF, resulting in the detection strain E. coli SH431. E. coli SH431 was used to conduct ribosome inhibition assays identical to those performed with E. coli SH399. Dose-dependent fluorescence responses by E. coli SH431 were observed when treated with four of these compounds as determined by plate reader fluorescence assays (see section 1.6 for experimental details), including two to which E. coli SH399 was not resistant and therefore could not produce a response. (FIG. 4B and FIG. 20).

E. coli SH431 = experiment: Cell density (OD600) growth assay of E. coli SH431
Description: as §1
as §2, with “E. coli SH431 was used to conduct ribosome inhibition assays identical to those performed with E. coli SH399.” left out, “(FIG. 4B and FIG. 20).” left out

O-ribosome [2] = experiment: O-ribosome inhibition fluorescence assay in E. coli SH399 (pSH6-KF, pRRSH2-A1408G); conditions: for detection of O-ribosome inhibition (fluorescence signal): E. coli SH399, A1408G 16S rRNA, aminoglycoside 0-500 μM, 48 h; for dose-dependent fluorescence response pattern: E. coli SH399, increasing aminoglycoside concentrations; for relative ribosome inhibition activity (rank among ten compounds) / fluorescence at drug concentrations beyond those that give the peak response: E. coli SH399; for relative ribosome inhibition activity (rank among ten compounds): printed order: sisomicin, gentamicins, neomycin B, paromomycin, tobramycin, amikacin, ribostamycin, apramycin, kanamycin A, neamine
Description: as §1
Dose-dependent fluorescence responses by E. coli SH399 was observed when treated with five of these compounds as determined by plate reader fluorescence assays (see section 1.6 for experimental details). (FIG. 4A and FIG. 20).

E. coli SH434 = experiment: Growth inhibition assay of aminoglycoside-sensitive E. coli SH434 (pSH6-KF, pRRSH2)
Description: as §1, with “The underside of the plate was illuminated at 365 nm using an ultraviolet handheld lamp and photgraphed with an 8 megapixel digital camera.” left out, “auto-fluorescence. […]” for “auto-fluorescence.”

TetR = target: T1, TetR (Escherichia coli, UniProt P04483); experiment: Recovery of GFPuv fluorescence in E. coli DH5α containing pSH3-KF; conditions: saturating ATC
T1 construct: expressed in transfected cells; host or cells: E. coli DH5α transformed with pSH3-KF (tetR amplified from pSR26_2)
Description: as §1, with “The underside of the plate was illuminated at 365 nm using an ultraviolet handheld lamp and photgraphed with an 8 megapixel digital camera.” left out, “auto-fluorescence. […]” for “auto-fluorescence.”

E. coli SH399 = experiment: Cell density (OD600) growth assay of E. coli SH399; conditions: E. coli SH399, concentrations beyond peak fluorescence response
Description: as §1, with “The underside of the plate was illuminated at 365 nm using an ultraviolet handheld lamp and photgraphed with an 8 megapixel digital camera.” left out, “auto-fluorescence. […]” for “auto-fluorescence.”

O-ribosome [3] = experiment: Ribosome inhibition fluorescence assay in E. coli SH391 (SH386 with pSH3-KF); conditions: E. coli SH391, kanamycin 0-500 μM
Description: as §1, with “The underside of the plate was illuminated at 365 nm using an ultraviolet handheld lamp and photgraphed with an 8 megapixel digital camera.” left out

E. coli SH430 = experiment: Cell viability (OD600) assay of E. coli SH430 (pRRSH2, wild-type 16S rRNA)
Text: (§3) E. coli SQ380 was transformed with pRRSH2-A1408G; and prrnC-sacB was removed by sucrose counterselection, resulting in E. coli SH386. As a control, E. coli SQ380 was also transformed with pRRSH2; and prrnC-sacB was removed by sucrose counterselection, resulting in E. coli SH430.

E. coli SH386 = experiment: Cell viability (OD600) assay of E. coli SH386 (pRRSH2-A1408G)
Text: as §3

T1 sequence (P04483 whole entry): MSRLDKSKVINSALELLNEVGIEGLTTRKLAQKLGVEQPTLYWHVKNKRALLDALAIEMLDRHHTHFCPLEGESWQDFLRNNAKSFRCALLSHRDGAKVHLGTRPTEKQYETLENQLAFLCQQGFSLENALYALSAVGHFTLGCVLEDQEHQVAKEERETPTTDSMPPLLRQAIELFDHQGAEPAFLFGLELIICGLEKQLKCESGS

Compound	detection of O-ribosome inhibition (fluorescence signal) (O-ribosome [1])	resistance of SH431 conferred by the U1406A mutation (E. coli SH431)	detection of O-ribosome inhibition (fluorescence signal) (O-ribosome [2])	dose-dependent fluorescence response pattern (O-ribosome [2])	fluorescence at drug concentrations beyond those that give the peak response (O-ribosome [2])	other results
CN[C@@H]1[C@@H](O[C@H]2O[C@H](CO)[C@@H](N)[C@H](O)[C@H]2O)OC2C[C@@H](N)[C@@H](O[C@H]3[C@H](O)[C@@H](O)[C@H](N)C[C@@H]3N)OC2[C@@H]1O (stereo partly drawn) [apramycin]	lack of signal	inability of the U1406A mutation to confer resistance	able to detect O-ribosome inhibition	more gradual dose-dependent fluorescence increases		
NC[C@H]1O[C@H](O[C@H]2[C@H](O)[C@@H](O)[C@H](N)C[C@@H]2N)[C@H](N)[C@@H](O)[C@@H]1O [neamine]						growth inhibition activity (E. coli SH434): very weak; relative ribosome inhibition activity (rank among ten compounds) (O-ribosome [2]; listed as Neamine): very weak
NC[C@@H]1O[C@H](O[C@H]2[C@@H](O)[C@H](O[C@@H]3[C@@H](O)[C@H](N)C[C@H](N)[C@H]3O[C@H]3O[C@H](CN)[C@@H](O)[C@H](O)[C@H]3N)O[C@@H]2CO)[C@H](N)[C@@H](O)[C@@H]1O [neomycin, neomycin B]	lack of signal	inability of the U1406A mutation to confer resistance	able to detect O-ribosome inhibition	robust fluorescence responses at low concentrations	fluorescence decreases significantly	
Cc1c2c(c(O)c3c(O)cccc13)C(=O)[C@]1(O)C(=O)C(C(N)=O)=C(O)[C@@H](N(C)C)[C@@H]1C2 [anhydrotetracycline]						fluorescence level relative to the gfp-uv/tetR-expressing strain (TetR): 106.6%±1.2%
NC[C@@H]1O[C@H](O[C@H]2[C@@H](O)[C@H](O[C@@H]3[C@@H](O)[C@H](N)C[C@H](N)[C@H]3O[C@H]3O[C@H](CO)[C@@H](O)[C@H](O)[C@H]3N)O[C@@H]2CO)[C@H](N)[C@@H](O)[C@@H]1O [paromomycin]	lack of signal	inability of the U1406A mutation to confer resistance	able to detect O-ribosome inhibition	robust fluorescence responses at low concentrations	fluorescence decreases significantly	growth inhibition accompanying the decrease in fluorescence (E. coli SH399): accompanied by growth inhibition
NC[C@H]1O[C@H](O[C@H]2[C@H](O)[C@@H](O[C@H]3O[C@H](CO)[C@@H](O)[C@H](N)[C@H]3O)[C@H](N)C[C@@H]2N)[C@H](O)[C@@H](O)[C@@H]1O [kanamycin, kanamycin A]	able to detect O-ribosome inhibition		able to detect O-ribosome inhibition	robust dose-dependent increase in fluorescence; also recorded: more gradual dose-dependent fluorescence increases		increase in fluorescence (O-ribosome [3]): ~50%; maximum induction of fluorescence (O-ribosome [3]; strong background fluorescence): 1.6 fold; relative potency as ribosome inhibitor (rank among four compounds) (O-ribosome [1]; E. coli SH431): least potent; growth inhibition (E. coli SH430; E. coli SH430, 10 μM kanamycin, 24 hours): significant growth inhibition; concentrations at which the strain cannot survive (E. coli SH430; E. coli SH430, 24 hours): above 10 μM; concentration up to which the strain is resistant (highest concentration tested) (E. coli SH386; E. coli SH386, A1408G): up to 500 μM; growth inhibition (E. coli SH386; E. coli SH386, any kanamycin concentration tested (up to 500 μM), 24 hours): no growth inhibition
gentamicin [gentamicins]	able to detect O-ribosome inhibition		able to detect O-ribosome inhibition	robust fluorescence responses at low concentrations	fluorescence decreases significantly	response at higher concentrations (O-ribosome [1]; E. coli SH431): Dose-dependent decreases in response; relative potency as ribosome inhibitor (rank among four compounds) (O-ribosome [1]; E. coli SH431): most potent ribosome inhibitors; growth inhibition accompanying the decrease in fluorescence (E. coli SH399): accompanied by growth inhibition
CN[C@@H]1[C@@H](O)[C@@H](O[C@@H]2[C@@H](O)[C@H](O[C@H]3OC(CN)=CC[C@H]3N)[C@@H](N)C[C@H]2N)OC[C@]1(C)O [sisomicin]						relative ribosome inhibition activity (rank among ten compounds) (O-ribosome [2]): strongest ribosome inhibition activity
